In patent US20260165936A1, “BIO-BASED SURFACTANT COMPOSITION FOR REDUCTION OF MULTISPECIES BIOFILM FORMATION IN ORAL CAVITY” (SKYLAB AG, priority 2023, published 2026):

What was measured:
[1] = test system: dental plaque; details: second-generation anti-plaque agent; cited from earlier work
[2] = test system: dental plaque (biofilm) grown from fresh human saliva; experiment: Inhibition of biofilm formation on rough glass rods (biofilm dry weight); assay type: cell-based; details: for Average biofilm weight: biofilm grown 3 days on rough glass rods in human saliva, dry weight; for Biofilm inhibitory effect of the individual component alone compared to the control (in words): individual component without its partner, FIG. 2
Method: The aqueous solutions of sodium lauroyl sarcosinate, biosurfactant rhamnolipid and the mixture thereof at various concentrations were tested for inhibition of biofilm formation on the surface of rough glass rods. The test sample of the raw material contained sodium lauroyl sarcosinate at the level of 35%. The test sample of the raw material contained rhamnolipid at the level of 40%. Sterile water was used as a negative control, and the mouthwash Corsodyl, containing 0.2% chlorhexidine was used as a positive control. Dry biofilm mass was weighted to determine the amount of formed dental plaque. The dental plaque was grown for 3 days by immersion of rough glass rods into the fresh human saliva containing 0.1% saccharose. […] On Day 1 one treatment of the glass rods with the test component solutions, and on Days 2 and 3 two treatments of the glass rods with the test component solutions were made. At the end of Day 3 the biofilm was collected from the glass rods, and the plaque amount by dry weight (g) was determined. Lesser weight indicated higher efficacy against the dental plaque. Sterilized rods were fixed in the holders in the microbiological cabinet. Since that moment the rods and the holders were used as the integral units. On Day 1 the sterile glass rods were pre-treated for 2 minutes with the test component solutions taken in the amount of 5 mL. Then the glass rods were removed, washed in 5 mL of the sterile distilled water and immersed into 5 mL of saliva containing 0.1% saccharose. The tubes were placed into the rack and then into the incubator (t=37° C.) and on shaker (250 rpm) for about 18 hours. On Days 2 and 3 in the morning the rods were treated with the test component solutions, then placed into nutritive broth and returned into the incubator and on shaker. After 6 h incubation in the broth the rods were treated with the test component solution once again and transferred into the saliva with 0.1% glucose, and then returned into the incubator for 18 hours. On Day 4 the tubes with the rods were removed from the incubator and used for determination of the biofilm dry weight. For this purpose, the rods were dried and then weighted on analytical balance with the accuracy of 4 decimal places. The biofilm was removed after the rehydration, and the rods were weighted once again. The biofilm dry weight was determined from the equation: [formula]

Compound | Removal of dental plaque [1] | Average biofilm weight ([2]; aqueous solution 0.01%) [g] | Biofilm inhibitory effect of the individual component alone compared to the control (in words) [2] | Dose dependence of dental plaque weight (in words) ([2]; 0.2 and 2% aqueous solutions, 10-fold increase in concentration) | Average biofilm weight ([2]; aqueous solution 0.2%) [g] | Average biofilm weight ([2]; aqueous solution 2%) [g]
[H]/N=C(\N/C(=N/[H])NCCCCCCNC(=N)NC(=N)Nc1ccc(Cl)cc1)Nc1ccc(Cl)cc1 [chlorohexidine] | 70-90% |  |  |  |  | 
rhamnolipid [Biosurfactant rhamnolipid] |  | 0.0026 | do not provide for any biofilm inhibitory effect compared to the control |  |  | 
sodium lauroyl sarcosinate |  |  | do not provide for any biofilm inhibitory effect compared to the control | absence of obvious dose-dependent effect | 0.0022 | 0.0020
